Like-named read-outs stand apart in the source and are kept apart here. Square brackets hold non-standard residues; d marks the D form. Ends that are not written are not given here. Peptide text beside a SMILES is read from it.
Legend:
DRB1*0301 (DR3w17) = target: T1, DRB1*0301 (DR3w17) (Homo sapiens, UniProt P01903+P01911, A100K/A102G/A103R/A169T/F55Y/I96L/K41T/L162R/M171V/P40S/Q125H/Q178H/Q39Y/R42S/S66N/T106N/T262R/W38E/Y61H); assay: Class II peptide-binding assay, DR3 (pH 4.5); details: Table VIII;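 also: unlabeled peptide competing with a radiolabeled probe peptide for binding to affinity-purified HLA-DR3, IC50 regarded as an approximation of Kd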
T1 construct: used as sources of human HLA class II molecules; endogenous in cells; host or cells: MAT (EBV-transformed homozygous B cell line)
Procedure: (§1) Class II peptide-binding assays. […] These assays were chosen as to be representative of the most common DR alleles.
(§2) In appropriate stoichiometric conditions, the IC50 of an unlabeled test peptide to the purified DR is a reasonable approximation of the affinity of interaction (Kd). Peptides were tested in two to four completely independent experiments. […] Final detergent concentration in the incubation mixture was 0.05% Nonidet P-40. Assays were performed at pH 7.0 with the exception of DR3, which was performed at pH 4.5, and DRw53, which was performed at pH 5.0.
(§3) All subsequent inhibition and direct binding assays were the performed using these class II concentrations.

DRB10404 (DR4w14) = target: T2, DRB10404 (DR4w14) (Homo sapiens, UniProt P01903+P01911, A100R/A169T/F76Y/I96L/K127E/L162R/M171V/N62H/P40V/Q125Y/R42H/S133A/S149N/S66Y/V209L/W38E); assay: Class II peptide-binding assay, DR4w14;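 also: unlabeled peptides compete with a radiolabeled probe for binding to affinity-purified HLA-DR, neutral pH, class II amount titrated to bind a small fraction of label, IC50 approximates Kd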
T2 construct: used as sources of human HLA class II molecules; endogenous in cells; host or cells: BIN40 (EBV-transformed homozygous B cell line)
Procedure: as §1, §2, §3

DRB1*0701 (DR7) = DRB1*0701 (DR7) (Homo sapiens, UniProt P01903+P01911, A100R/A102G/A103Q/D57E/D86V/E43K/F76Y/K127E/L162R/M171V/P40G/Q125H/Q99D/R33Q/R42Y/R54Q/S133A/S66F/T210M/V115G/Y107V/Y59L/Y89S); assay: Class II peptide-binding assay, DR7;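 also: unlabeled peptides compete with an iodinated probe peptide for binding to affinity-purified HLA-DR at neutral pH, DR amount titered to bind a small tracer fraction, IC50 approximating Kd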
DRB1*0101 (DR1) = target: T3, DRB1*0101 (DR1) (Homo sapiens, UniProt P01903+P01911, A100R/D57E/F55L/F60I/F76Y/I96L/L162R/M171V/P40L/Q125E/R42F/V115G/Y59C); assay: Class II peptide-binding assay, DR1;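 also: competition assay: unlabeled test peptides inhibit binding of a radiolabeled probe peptide to purified DR, with half-maximal inhibition taken as an approximate dissociation constant Kd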
T3 construct: used as sources of human HLA class II molecules; endogenous in cells; host or cells: LG2 (EBV-transformed homozygous B cell line)

DRB5*0101 (DR2w2a) = target: T4, DRB5*0101 (DR2w2a) (Homo sapiens, UniProt P01903+Q30154); assay: Class II peptide-binding assay, DR2w2a (DR2w2B2);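 also: competitive binding assay: unlabeled peptide inhibiting binding of a radiolabeled probe peptide to purified DR molecules at pH 7.0, IC50 approximating Kd, lower means stronger binding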
T4 construct: used as sources of human HLA class II molecules; endogenous in cells; host or cells: GM3107 (EBV-transformed homozygous B cell line)

DRB1*1101 (DR5w11) = target: T5, DRB1*1101 (DR5w11) (Homo sapiens, UniProt P01903+P01911, A100R/A169T/A87E/I96F/K41T/L162R/M171V/P40S/Q125H/Q178H/Q39Y/Q99D/R42S/S66Y/T262R/V115G/W38E); assay: Class II peptide-binding assay, DR5w11;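 also: competition by unlabeled test peptide against iodinated probe peptide binding to affinity-purified HLA-DR, class II amount titrated beforehand, half-maximal inhibitory concentration read as approximate Kd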
T5 construct: used as sources of human HLA class II molecules; endogenous in cells; host or cells: SWEIG (EBV-transformed homozygous B cell line)

DRB1*0401 (DR4w4) = target: T6, DRB1*0401 (DR4w4) (Homo sapiens, UniProt P01903+P01911, A100K/A169T/F76Y/I96L/K127E/L162R/M171V/N62H/P40V/Q125Y/R42H/S133A/S149N/S66Y/V115G/V209L/W38E); assay: Class II peptide-binding assay, DR4w4;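 also: unlabeled test peptides compete with a radiolabeled probe peptide for binding to affinity-purified HLA-DR, with DR amount titrated to capture a small fraction of label, IC50 approximating Kd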
T6 construct: used as sources of human HLA class II molecules; endogenous in cells; host or cells: PREISS (EBV-transformed homozygous B cell line)

[1] = read-out: In IC50 Format DR3 nM, values in parentheses read as lower bounds
[2] = read-out: DR4w14 nM (In IC50 Format), purified HLA DR4w14
[3] = read-out: DR7 nM (In IC50 Format), purified HLA DR7
[4] = read-out: DR1 nM (In IC50 Format), purified HLA DR1
[5] = read-out: DR2w2B2 nM (In IC50 Format), purified HLA DR2w2β2
[6] = read-out: DR5w11 nM (In IC50 Format), purified HLA DR5w11
[7] = read-out: DR4w4 nM (In IC50 Format), purified HLA DR4w4

T5 sequence (P01903 26-254, other chains not shown): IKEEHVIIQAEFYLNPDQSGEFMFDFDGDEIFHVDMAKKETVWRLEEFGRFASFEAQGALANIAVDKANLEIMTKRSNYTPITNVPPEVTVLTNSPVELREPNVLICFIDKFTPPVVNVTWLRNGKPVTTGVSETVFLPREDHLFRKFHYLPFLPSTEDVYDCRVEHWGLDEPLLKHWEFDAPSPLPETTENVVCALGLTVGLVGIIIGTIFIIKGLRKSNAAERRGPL
T1 sequence (P01903 26-254, other chains not shown): as above

Row | Molecule | IC50 (DRB10404 (DR4w14); [2]) | IC50 (DRB1*0701 (DR7); [3]) | IC50 (DRB1*0101 (DR1); [4]) | IC50 (DRB5*0101 (DR2w2a); [5]) | IC50 (DRB1*1101 (DR5w11); [6]) | IC50 (DRB1*0401 (DR4w4); [7]) | also measured
1 | CC(C)C[C@H](NC(=O)[C@H](CC(=O)O)NC(=O)[C@@H](NC(=O)[C@H](CS)NC(=O)[C@H](CO)NC(=O)[C@@H](N)Cc1c[nH]cn1)C(C)C)C(=O)N[C@@H](CC(=O)O)C(=O)N[C@@H](CC(=O)O)C(=O)N[C@@H](CCCCN)C(=O)NCC(=O)N[C@@H](CS)C(=O)N1CCC[C@H]1C(=O)N[C@@H](C)C(=O)N[C@@H](CCC(=O)O)C(=O)N[C@@H](CCC(N)=O)C(=O)O [Peptide 39.0359] |  |  |  |  |  |  | IC50 (DRB1*0301 (DR3w17); [1]): > 111000 nM
2 | CC(C)C[C@H](NC(=O)[C@@H]1CCCN1C(=O)[C@H](C)NC(=O)[C@@H](NC(=O)[C@H](CC(N)=O)NC(=O)[C@H](CO)NC(=O)[C@H](C)NC(=O)[C@@H]1CCCN1C(=O)[C@H](CC(=O)O)NC(=O)CNC(=O)[C@H](CC(=O)O)NC(=O)[C@H](Cc1ccccc1)NC(=O)[C@H](CO)NC(=O)[C@H](CCC(=O)O)NC(=O)[C@@H]1CCCN1)[C@@H](C)O)C(=O)O [Peptide 39.0350] |  |  |  |  |  |  | IC50 (DRB1*0301 (DR3w17); [1]): > 111000 nM
3 | SLAFLPESFDGDPAS [Peptide 39.0349] |  |  |  |  |  |  | IC50 (DRB1*0301 (DR3w17); [1]): > 111000 nM
4 | CC[C@H](C)[C@H](NC(=O)[C@H](CCC(N)=O)NC(=O)[C@H](CC(C)C)NC(=O)[C@@H](NC(=O)[C@H](Cc1ccccc1)NC(=O)[C@H](Cc1ccc(O)cc1)NC(=O)[C@H](CCC(=O)O)NC(=O)CNC(=O)[C@H](CC(=O)O)NC(=O)[C@H](CC(C)C)NC(=O)[C@@H]1CCCN1C(=O)[C@H](CCCCN)NC(=O)[C@@H](N)CCCCN)[C@@H](C)O)C(=O)N[C@@H](CCCNC(=N)N)C(=O)NCC(=O)O [Peptide 39.0422] |  |  |  |  |  |  | IC50 (DRB1*0301 (DR3w17); read-out: In IC50 Format DR3): > 120000 nM
5 | C[C@H](NC(=O)[C@H](C)NC(=O)[C@H](Cc1ccccc1)NC(=O)[C@H](C)NC(=O)[C@@H](C)N)C(=O)N[C@@H](C)C(=O)N[C@@H](C)C(=O)N1CCC[C@H]1C(=O)N[C@@H](CCCCN)C(=O)N[C@@H](C)C(=O)N[C@@H](C)C(=O)N[C@@H](C)C(=O)N[C@H](C)C(N)=O [Peptide 828.05] (H-[dA]AFAAAAPKAAA[dA]-NH2) |  |  |  |  |  |  | IC50 (DRB10404 (DR4w14); read-out: DR4w14 nM, Table VIII, In IC50 Format): 6250 nM; IC50 (DRB1*0701 (DR7); read-out: DR7 nM, Table VIII, In IC50 Format): 1320 nM; IC50 (DRB1*0101 (DR1); read-out: DR1 nM, Table VIII, In IC50 Format): 1.9 nM; IC50 (DRB5*0101 (DR2w2a); read-out: DR2w2B2 nM, Table VIII, In IC50 Format): 15.6 nM; IC50 (DRB1*1101 (DR5w11); read-out: DR5w11 nM, Table VIII, In IC50 Format): 105 nM; IC50 (DRB1*0401 (DR4w4); read-out: DR4w4 nM, Table VIII, In IC50 Format): 155 nM
6 | YARFQSQTTLKSKT-NH2 [Peptide 717.23] | 21.7 nM | 8330 nM | 294 nM | 215 nM | 25.3 nM | 2.8 nM | 
7 | YARFQSQTTLKAKA-NH2 [Peptide 717.48] | 5.3 nM | 6250 nM | 1.8 nM | 40.8 nM | 5.9 nM | 2.6 nM | 
8 | YARFQSQTTLAAKT-NH2 [Peptide 717.50] | 4.3 nM | 4170 nM | 4.2 nM | 274 nM | 20.8 nM | 3.1 nM | 
9 | YARFQSQETLKAKT-NH2 [Peptide 717.17] | 25 nM | 1920 nM | 6 nM | 870 nM | 18.2 nM | 5.2 nM | 
10 | KMYFNLINTKCYKLEH [Peptide 541.14] |  |  |  |  |  |  | IC50 (DRB10404 (DR4w14); Table VIII, read-out: In IC50 Format DR4w14): 3570 nM; IC50 (DRB1*0701 (DR7); Table VIII, read-out: In IC50 Format DR7): 269 nM; IC50 (DRB1*0101 (DR1); Table VIII, read-out: In IC50 Format DR1): 714 nM; IC50 (DRB5*0101 (DR2w2a); Table VIII, read-out: In IC50 Format DR2w2β2): 103 nM; IC50 (DRB1*1101 (DR5w11); Table VIII, read-out: In IC50 Format DR5w11): 250 nM; IC50 (DRB1*0401 (DR4w4); Table VIII, read-out: In IC50 Format DR4w4): 2140 nM
11 | YARFQSQTTLKAKT-NH2 [Peptide 717.02] | 18.5 nM | 2780 nM | 2.9 nM | 125 nM | 18.9 nM | 3.7 nM | 
12 | YARFQAQTTLKAKT-NH2 [Peptide 717.55] | 4.3 nM | 5000 nM | 2.4 nM | 90.9 nM | 11.1 nM | 4.5 nM | 
13 | AFAAAATLKA-NH2 [Peptide 770.01] | 357 nM | 694 nM | 78.1 nM | 43.1 nM | 250 nM | 23.7 nM | 

— patent EP1388586A2, “Identification of broadly reactive DR restricted epitopes” (priority 1998, dated 1999)
